How the values were obtained:
[1] = biological target: T1, Mitogen-activated protein kinase 14 (Homo sapiens, UniProt Q16539); test: Inhibition of p38-alpha MAPK at 10 uM
[2] = biological target: T1, Mitogen-activated protein kinase 14; test: Inhibition of p38-alpha MAPK

T1 sequence (Q16539 whole entry): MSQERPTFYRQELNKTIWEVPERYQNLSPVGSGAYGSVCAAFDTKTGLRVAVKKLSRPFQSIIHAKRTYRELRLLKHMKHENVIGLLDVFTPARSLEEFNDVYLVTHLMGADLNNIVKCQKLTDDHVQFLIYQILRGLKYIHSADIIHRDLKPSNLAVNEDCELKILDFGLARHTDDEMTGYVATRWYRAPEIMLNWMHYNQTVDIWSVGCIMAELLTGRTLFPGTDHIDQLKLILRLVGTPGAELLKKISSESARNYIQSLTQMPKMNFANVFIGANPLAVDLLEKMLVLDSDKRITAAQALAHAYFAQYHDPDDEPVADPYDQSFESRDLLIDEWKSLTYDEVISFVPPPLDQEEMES

Row | Structure (SMILES) | inhibition [1] | IC50 [2]
1 | CCOc1onc(-c2ccc(F)cc2)c1-c1ccncc1 | 13.6% | –
2 | COCOc1onc(-c2ccc(F)cc2)c1-c1ccncc1 | 27.8% | –
3 | Fc1ccc(-c2noc(OCC3CC3)c2-c2ccncc2)cc1 | 26.4% | –
4 | CSc1nc(-c2ccc(F)cc2)c(-c2ccncc2)n1CCCO | – | 813 nM
5 | COc1onc(-c2ccc(F)cc2)c1-c1ccncc1 | 26.5% | –
6 | OCCCOc1onc(-c2ccc(F)cc2)c1-c1ccncc1 | 9.8% | –
7 | COCCOc1onc(-c2ccc(F)cc2)c1-c1ccncc1 | 14.4% | –
8 | Cc1ccc(S(=O)(=O)n2oc(=O)c(-c3ccc(F)cc3)c2-c2ccncc2)cc1 | – | 480 nM
9 | O=c1on(C(=S)Nc2ccc(F)cc2)c(-c2ccncc2)c1-c1ccc(F)cc1 | – | 350 nM
10 | OCCOc1onc(-c2ccc(F)cc2)c1-c1ccncc1 | 14.7% | –
11 | Oc1onc(-c2ccncc2)c1-c1ccc(F)cc1 | – | 390 nM
12 | CC(C)Oc1onc(-c2ccc(F)cc2)c1-c1ccncc1 | 11.9% | –
13 | Fc1ccc(-c2noc(OCC3CO3)c2-c2ccncc2)cc1 (stereo unspecified) | 23.7% | –
14 | O=C(Nc1ccc(F)cc1)n1oc(=O)c(-c2ccc(F)cc2)c1-c1ccncc1 | – | 320 nM

Now from value to compound:

Row | inhibition [1] | IC50 [2] | Structure (SMILES)
15 | 41.9% | – | O=C1c2ccccc2C(=O)N1CCn1oc(=O)c(-c2ccc(F)cc2)c1-c1ccncc1
16 | – | 2500 nM | O=c1on(CCO)c(-c2ccncc2)c1-c1ccc(F)cc1
17 | – | 2130 nM | O=c1on(CC2CC2)c(-c2ccncc2)c1-c1ccc(F)cc1
18 | – | 3900 nM | CSCCn1oc(=O)c(-c2ccc(F)cc2)c1-c1ccncc1
19 | – | 3830 nM | COCCOCn1oc(=O)c(-c2ccc(F)cc2)c1-c1ccncc1
20 | – | 3830 nM | O=c1on(CC2CO2)c(-c2ccncc2)c1-c1ccc(F)cc1 (stereo unspecified)
21 | – | 1320 nM | CCOCCn1oc(=O)c(-c2ccc(F)cc2)c1-c1ccncc1
22 | – | 1630 nM | CCn1oc(=O)c(-c2ccc(F)cc2)c1-c1ccncc1
23 | – | 120 nM | CC(=O)n1oc(=O)c(-c2ccc(F)cc2)c1-c1ccncc1
24 | 38.3% | – | O=c1on(CCN2CCCCC2)c(-c2ccncc2)c1-c1ccc(F)cc1
25 | – | 1400 nM | O=c1o[nH]c(-c2ccc(F)cc2)c1-c1ccncc1
26 | – | 970 nM | CCOC(=O)CCNC(=O)n1oc(=O)c(-c2ccc(F)cc2)c1-c1ccncc1
27 | 42.2% | – | CC(C)n1oc(=O)c(-c2ccc(F)cc2)c1-c1ccncc1
28 | – | 230 nM | CCNC(=O)n1oc(=O)c(-c2ccc(F)cc2)c1-c1ccncc1
29 | 27.5% | – | CC(c1ccccc1)n1oc(=O)c(-c2ccc(F)cc2)c1-c1ccncc1 (stereo unspecified)
30 | – | 1150 nM | O=c1on(CCCO)c(-c2ccncc2)c1-c1ccc(F)cc1
31 | – | 2130 nM | COCn1oc(=O)c(-c2ccc(F)cc2)c1-c1ccncc1

From ChEMBL document CHEMBL1144828, “Isoxazolone based inhibitors of p38 MAP kinases” (J Med Chem, 2008)
